The values below are quoted from earlier work in US10653626B2, “Powder for oral suspension containing lamotrigine” (Shanghai Aucta Pharmaceuticals Co., Ltd., priority 2016, dated 2020).

As to `Nc1nnc(-c2cccc(Cl)c2Cl)c(N)n1` [Lamotrigine, 6-(2,3-dichlorophenyl)-1,2,4-triazine-3,5-diamine], the Solubility in water result is recorded as “insoluble in water”.
